In article PMC10069031 (European Journal of Medical Research, 2023):

Key:
[1] = tested on: ERK1/2; assay: Inhibition of ERK activation in CSF1-stimulated RAW264.7 cells (western blot); assay type: cell-based, mouse; conditions: Mus musculus, mean ± SD (replicates), read-out: Mean kinase IC50 values: P(T185,202;Y187,204) ERK1/2 [WB]
Description: RAW264.7 cells (10^6) were seeded into cell culture dishes 6 cm in diameter and incubated in 4 mL RPMI/10% fetal bovine serum (Biochrom) for 24 h at 37 °C in a humidified 5% CO2 atmosphere. Cells were washed once with phosphate-buffered saline (PBS) and starved in 3 mL RPMI/0.1% bovine serum albumin for another 24 h. Cells were then treated for 1 h at 37 °C with drugs at the indicated final concentrations, with 0.5% DMSO as vehicle control, or left untreated, and finally stimulated for 2 min at 37 °C with 100 ng/mL recombinant mouse CSF1 (R&D Systems) by adding 1 mL prewarmed starving medium containing 400 ng/mL CSF1. Dishes were placed on ice and cells were immediately washed with ice-cold PBS and lysed with 50 µL lysis buffer (50 mM HEPES pH 7.5, 150 mM NaCl, 1.5 mM MgCl2, 10% glycerol, 1% Triton X-100, 0.5% desoxycholate, 0.2% sodium dodecyl sulfate, 1 mM ethylene glycol-bis[β-aminoethyl ether]-N,N,N′,N′-tetraacetic acid, 100 mM NaF, 10 mM Na4P2O7, 1 mM Na3VO4, 1% Phosphatase Inhibitor Cocktail 3 [Sigma-Aldrich], 1 mM phenylmethyl sulfonyl fluoride, Complete Protease Inhibitor Cocktail [Roche CustomBiotech; 1 tablet/10 mL], and 50 U/mL Benzonase [Sigma-Aldrich]). Lysed cells were scraped into Eppendorf tubes, incubated on ice for 20 min, and centrifuged at 4 °C for 10 min at 13,000 rpm; supernatants (lysates) were transferred into new tubes and stored at −80 °C.
Protein concentrations were determined using Pierce bicinchoninic acid assay (Thermo Fisher Scientific) and 40 µg/lane of total lysate was separated by SDS-PAGE on 4–12% Criterion XT Bis–Tris Gels (Bio-Rad) and subsequently transferred to polyvinylidene difluoride membranes using the Trans Blot Turbo Blotting System (Bio-Rad). For antigen detection, membranes were blocked with PBS Odyssey blocking reagent (LI-COR Biosciences) for 1 h at room temperature (RT). Primary antibodies were incubated overnight at 4 °C and the fluorescent secondary antibodies were incubated for 1 h at RT. After each antibody incubation, blots were washed with PBS with 0.05% Tween 20 (Carl Roth) for 15–30 min at RT. Fluorescent signals were quantitatively captured using the Odyssey DLx Infrared Imaging System (LI-COR Biosciences) and the half-maximal inhibitory concentration (IC50) values were calculated using GraphPad software (version 7 or newer).

[2] = tested on: CD115^hi cells in blood; assay: CD115^hi cells in blood, MC38 study; assay type: in vivo, mouse; conditions: C57BL/6 mice with subcutaneous MC38 CRC tumors
Description: (§1) For tumors, single-cell suspensions were prepared from the fresh tumor pieces using a mouse Tumor Dissociation Kit (Miltenyi Biotec). The final cell pellets were resuspended in 1 mL FC buffer (PBS with 2 mM EDTA, 0.5% bovine serum albumin). Then, 100 µL of the tumor single-cell suspensions and the EDTA blood samples were stained by addition of the antibody cocktail and incubated for 10 min at 4 °C according to the manufacturer’s instructions. After antibody incubation, blood samples were incubated with 2–3 mL lysis buffer (0.17 M NH4Cl, 10 mM KHCO3, 0.1 mM EDTA) for 10–20 min at RT to lyse and remove red blood cells. Subsequently, samples were centrifuged at 300 g for 5 min at 4 °C and cells were washed with 2–3 mL FC buffer. Tumor samples were washed immediately after antibody incubation with 2–3 mL FC buffer without the lysis procedure and centrifuged at 300 g for 5 min at 4 °C. […] Next, 50 µL of blood and 70 µL of tumor cell suspensions were analyzed by FC using MACSQuant Analyzer 10 and MACSQuant Analyzer 16 (Miltenyi Biotec). FC data were analyzed with the FlowLogic software (Inivai Technologies distributed through Miltenyi Biotec; version 7.2.1) and gated as shown in Fig. S1 (see Additional file 2), whereby up to seven subpopulations were identified in the CD45^+ fraction using antibodies against F4/80 and CD115. […]

[3] = tested on: F4/80^hi population; assay: F4/80^hi cells in MC38 tumors; assay type: in vivo, mouse; conditions: even at 5 mg/kg/day
Description: as §1

IC50 [1]: 293 ± 123 nM
SMILES: CNC(=O)c1cc(Oc2ccc(NC(=O)Nc3ccc(Cl)c(C(F)(F)F)c3)c(F)c2)ccn1 [REG, Regorafenib]
number of CD115^hi cells in the blood [2]: reduced
reduction of the F4/80^hi population vs vehicle [3]: more than twofold
